The source of these data is patent US11654135B2, “Methods for treating colon cancer with compositions comprising amlexanox and immune checkpoint inhibitors” (MOONSHOT PHARMA LLC, priority 2017, dated 2023).

The experiment has as its system MC38 tumor cells. Nature of the experiment: Example 2: MC38 subcutaneous tumor model with amlexanox and checkpoint inhibitors, tumor volume by caliper. As to conditions: for Mean tumor volume: MC38 s.c., C57BL/6, i.p.: NMDI14 5, PTC124 20, amlexanox 20 (with antibodies) or 10 (alone) mg/kg QD, antibodies 10 mg/kg BIW, 3 weeks; for Mean % Inhibition, Tumor Volume MC38: (mean(C) − mean(T))/mean(C) * 100%, negative values indicate an increase in tumor volume. Format: in vivo, C57BL/6 mice. The procedure:
Animals and cell cultures were maintained as described in Example 1. C57BL/6 mice were inoculated subcutaneously at the right lower flank region with MC38 tumor cells (1×10^6) in 0.1 mL of PBS for tumor development. The treatments were started when the mean tumor size reaches approximately 50 mm^3. The date of tumor cell inoculation was denoted as day 0. All the compounds were administered i.p.
After tumor cell inoculation, the animals were checked daily for morbidity and mortality as well as any effects of tumor growth and treatments on normal behavior such as mobility, visual estimation of food and water consumption, body weight gain/loss, eye/hair matting and any other abnormal effect. Tumor volumes were measured twice weekly at least in two dimensions using a caliper, and the volume expressed in mm3 using the formula: V=0.5 a×b2 where a and b are the long and short diameters of the tumor, respectively. Mean tumor volume for each treatment group over the course of the study is shown in Table 9, and the percent inhibition of tumor volume is shown in Table 10.

Take `CC(C)c1ccc2oc3nc(N)c(C(=O)O)cc3c(=O)c2c1` [amlexanox, 2-amino-7-isopropyl-5-oxo-5H-chromeno[2,3-b]pyridine-3-carboxylic acid]: the Mean tumor volume runs as follows: (Day 7) 17.22 mm3; (Day 11) 145.47 mm3; (Day 14) 286.64 mm3; (Day 18) 982.03 mm3; (Day 21) 1830.00 mm3; (Day 25) 2816.94 mm3. Besides, the Mean tumor volume (Day 26 (so in the source)) is recorded as 3301.20 mm3. Further, the “Mean % Inhibition, Tumor Volume MC38” value (Study day 7 (Mar. 17, 2017)) was −45.19%; the “Mean % Inhibition, Tumor Volume MC38” value (Study day 11 (Mar. 21, 2017)) is listed as −29.51%; the “Mean % Inhibition, Tumor Volume MC38” value (Study day 14 (Mar. 24, 2017)) is reported as −39.15%; the “Mean % Inhibition, Tumor Volume MC38” value (Study day 18 (Mar. 28, 2017)) was −44.97%; the “Mean % Inhibition, Tumor Volume MC38” value (Study day 21 (Mar. 31, 2017)) was −63.00%; the “Mean % Inhibition, Tumor Volume MC38” value (Study day 25 (Apr. 4, 2017)) is −42.11%. Further, the “Mean % Inhibition, Tumor Volume MC38” value (Study day 28 (Apr. 7, 2017)) is −104.74%.
